Measured values as given in patent US5068247A, “2-aminopentanoic acid compounds and their use as immunosuppressants” (priority 1989, dated 1991).

System: allo-reactive cytotoxic T cells in spleen of EL4-immunized BALB/c mice
Assay: suppression of allo-reactive cytotoxic T cells induced by immunization of mouse with allogenic cells
Assay type: in vivo
Experimental: Male 5- to 7-week-old BALB/c mice (H-2^d) were immunized with leukemia cell EL4 derived from C57BL/6 mice (H-2^b) (10^7 cells/mouse, intraperitoneal administration), and the test substance was administered intraperitoneally 5 times at the doses of 0.001 to 3 mg/kg/day or orally at the doses of 0.3 to 10 mg/kg/day from the day of immunization. Nine to ten days after immunization, the spleen was resected from the mice to prepare a single cell suspension and the suspension was used as effector cell suspension. The ^51 Cr-release assay was carried out in the same way as in Experiment Example 3, using EL4 cells as the target cells to measure the cytotoxic activity.
The activity of allo-reactive cytotoxic T cell is indicated by lytic unit (LU) per spleen. One lytic unit (LU) is defined as the number of effector cells required to cause 25% lysis of 5×10^3 target cells. At the same time, the body weight of mouse and number of spleen cells were also determined.

[1] = 0.003 mg/kg/day po × 10, Table 9E
[2] = 0.01 mg/kg/day ip × 5, Table 9C
[3] = 0.01 mg/kg/day po × 5, Table 9D
[4] = 0.01 mg/kg/day po × 10, Table 9E
[5] = 0.03 mg/kg/day ip × 5, Table 9C
[6] = 0.03 mg/kg/day po × 5, Table 9D
[7] = 0.03 mg/kg/day po × 10, Table 9E
[8] = 0.1 mg/kg/day po × 10, Table 9E
[9] = 0.3 mg/kg/day po × 10, Table 9E

CCCCCCCCCCCCC/C=C/C[C@@H](O)[C@H](O)[C@@](N)(CO)C(=O)O [Example 5] was tested, and the “Cytotoxic T cell activity” value [1] was 1936 ± 840 LU/spleen, the “Cytotoxic T cell activity, suppression” value [1] was 30.5% and the “Number of spleen cells” value [1] was 1.3 ± 0.3 × 10^8. For the same compound, the “Body weight 9 days after immunization” value [2] was 24.4 ± 1.1 g, the “Cytotoxic T cell activity” value [2] was 443 ± 141 LU/spleen and the “Cytotoxic T cell activity, suppression” value [2] was 62.1%. The “Number of spleen cells” value [2] was 2.2 ± 0.3 × 10^8 cell, the “Body weight 10 days after immunization” value [3] was 25.8 ± 1.3 g and the “Cytotoxic T cell activity” value [3] was 709 ± 189 LU/spleen. The “Cytotoxic T cell activity, suppression” value [3] was 53.7%, the “Number of spleen cells” value [3] was 1.6 ± 0.3 × 10^8 and the “Body weight 10 days after immunization” value [4] was 25.2 ± 1.3 g. The “Cytotoxic T cell activity” value [4] was 996 ± 279 LU/spleen, the “Cytotoxic T cell activity, suppression” value [4] was 64.2% and the “Number of spleen cells” value [4] was 1.4 ± 0.2 × 10^8. The “Body weight 9 days after immunization” value [5] was 24.0 ± 2.2 g, the “Cytotoxic T cell activity” value [5] was 352 ± 148 LU/spleen and the “Cytotoxic T cell activity, suppression” value [5] was 69.9%. The “Number of spleen cells” value [5] was 2.1 ± 0.5 × 10^8 cell, the “Body weight 10 days after immunization” value [6] was 25.0 ± 1.2 g and the “Cytotoxic T cell activity” value [6] was 684 ± 181 LU/spleen. The “Cytotoxic T cell activity, suppression” value [6] was 55.3%, the “Number of spleen cells” value [6] was 1.6 ± 0.3 × 10^8 and the “Body weight 10 days after immunization” value [7] was 24.2 ± 1.3 g. The “Cytotoxic T cell activity” value [7] was 799 ± 304 LU/spleen, the “Cytotoxic T cell activity, suppression” value [7] was 71.3% and the “Number of spleen cells” value [7] was 1.5 ± 0.3 × 10^8. The “Body weight 9 days after immunization” value (0.1 mg/kg/day ip × 5, Table 9C) was 25.4 ± 1.9 g, the “Cytotoxic T cell activity” value (0.1 mg/kg/day ip × 5, Table 9C) was 158 ± 86 LU/spleen and the “Cytotoxic T cell activity, suppression” value (0.1 mg/kg/day ip × 5, Table 9C) was 86.5%. The “Number of spleen cells” value (0.1 mg/kg/day ip × 5, Table 9C) was 1.9 ± 0.3 × 10^8 cell, the “Body weight 10 days after immunization” value (0.1 mg/kg/day po × 5, Table 9D) was 25.2 ± 0.4 g and the “Cytotoxic T cell activity” value (0.1 mg/kg/day po × 5, Table 9D) was 638 ± 155 LU/spleen. The “Cytotoxic T cell activity, suppression” value (0.1 mg/kg/day po × 5, Table 9D) was 58.3%, the “Number of spleen cells” value (0.1 mg/kg/day po × 5, Table 9D) was 1.7 ± 0.4 × 10^8 and the “Body weight 10 days after immunization” value [8] was 25.0 ± 0.7 g. The “Cytotoxic T cell activity” value [8] was 731 ± 318 LU/spleen, the “Cytotoxic T cell activity, suppression” value [8] was 73.8% and the “Number of spleen cells” value [8] was 1.4 ± 0.4 × 10^8. The “Body weight 9 days after immunization” value (0.3 mg/kg/day ip × 5, Table 9C) was 26.0 ± 1.6 g, the “Cytotoxic T cell activity” value (0.3 mg/kg/day ip × 5, Table 9C) was under 50 LU/spleen and the “Cytotoxic T cell activity, suppression” value (0.3 mg/kg/day ip × 5, Table 9C) was over 95%. For the same compound, the “Number of spleen cells” value (0.3 mg/kg/day ip × 5, Table 9C) was 1.9 ± 0.2 × 10^8 cell, the “Body weight 10 days after immunization” value (0.3 mg/kg/day po × 5, Table 9D) was 25.4 ± 0.5 g and the “Cytotoxic T cell activity” value (0.3 mg/kg/day po × 5, Table 9D) was 609 ± 197 LU/spleen. The “Cytotoxic T cell activity, suppression” value (0.3 mg/kg/day po × 5, Table 9D) was 60.2%, the “Number of spleen cells” value (0.3 mg/kg/day po × 5, Table 9D) was 1.6 ± 0.3 × 10^8 and the “Body weight 10 days after immunization” value [9] was 24.2 ± 1.3 g. For the same compound, the “Cytotoxic T cell activity” value [9] was 651 ± 257 LU/spleen, the “Cytotoxic T cell activity, suppression” value [9] was 76.6% and the “Number of spleen cells” value [9] was 1.6 ± 0.3 × 10^8. For the same compound, the “Body weight 10 days after immunization” value (1 mg/kg/day po × 5, Table 9D) was 25.0 ± 1.4 g, the “Cytotoxic T cell activity” value (1 mg/kg/day po × 5, Table 9D) was 421 ± 12 LU/spleen and the “Cytotoxic T cell activity, suppression” value (1 mg/kg/day po × 5, Table 9D) was 72.5%. For the same compound, the “Number of spleen cells” value (1 mg/kg/day po × 5, Table 9D) was 1.7 ± 0.3 × 10^8, the “Body weight 10 days after immunization” value (1 mg/kg/day po × 10, Table 9E) was 22.4 ± 0.5 g and the “Cytotoxic T cell activity” value (1 mg/kg/day po × 10, Table 9E) was 269 ± 179 LU/spleen. For the same compound, the “Cytotoxic T cell activity, suppression” value (1 mg/kg/day po × 10, Table 9E) was 90.3%, the “Number of spleen cells” value (1 mg/kg/day po × 10, Table 9E) was 1.5 ± 0.3 × 10^8 and the “induction of allo-reactive cytotoxic T cells (in words)” value (5 times intraperitoneal or oral) was “strongly suppresses the induction of allo-reactive cytotoxic T cells”. The “induction of allo-reactive cytotoxic T cells (in words), 10 oral administrations” value (10 times oral, up to 0.03 mg/kg) was “significant suppressive activity up to the dose of 0.03 mg/kg”.
